Target: T1, C-SfruOR13 (SfruOR13 from the C-strain) (Spodoptera frugiperda, UniProt A0A9R0CXR4)
T1 construct: gene LOC118264496; full-length ORF (435 residues), synthesized, pUAST.attB; expressed in Drosophila at1 trichoid OSNs (Or67d-GAL4) replacing OR67d; Orco is that of the fly host; with Odorant receptor coreceptor (endogenous, Drosophila melanogaster)
T1 sequence (A0A9R0CXR4 1-435): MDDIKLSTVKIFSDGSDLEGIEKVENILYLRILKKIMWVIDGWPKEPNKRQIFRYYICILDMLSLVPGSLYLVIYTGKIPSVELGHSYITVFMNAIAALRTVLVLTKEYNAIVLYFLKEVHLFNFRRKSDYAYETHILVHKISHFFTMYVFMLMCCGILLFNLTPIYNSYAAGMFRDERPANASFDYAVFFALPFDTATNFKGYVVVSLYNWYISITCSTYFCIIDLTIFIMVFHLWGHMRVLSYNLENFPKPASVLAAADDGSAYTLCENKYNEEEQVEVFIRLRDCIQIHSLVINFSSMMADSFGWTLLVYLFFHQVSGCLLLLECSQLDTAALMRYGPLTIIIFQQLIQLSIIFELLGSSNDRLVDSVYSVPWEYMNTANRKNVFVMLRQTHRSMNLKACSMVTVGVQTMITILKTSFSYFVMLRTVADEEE
T1 sequence (Q9VNB5 1-486 partner): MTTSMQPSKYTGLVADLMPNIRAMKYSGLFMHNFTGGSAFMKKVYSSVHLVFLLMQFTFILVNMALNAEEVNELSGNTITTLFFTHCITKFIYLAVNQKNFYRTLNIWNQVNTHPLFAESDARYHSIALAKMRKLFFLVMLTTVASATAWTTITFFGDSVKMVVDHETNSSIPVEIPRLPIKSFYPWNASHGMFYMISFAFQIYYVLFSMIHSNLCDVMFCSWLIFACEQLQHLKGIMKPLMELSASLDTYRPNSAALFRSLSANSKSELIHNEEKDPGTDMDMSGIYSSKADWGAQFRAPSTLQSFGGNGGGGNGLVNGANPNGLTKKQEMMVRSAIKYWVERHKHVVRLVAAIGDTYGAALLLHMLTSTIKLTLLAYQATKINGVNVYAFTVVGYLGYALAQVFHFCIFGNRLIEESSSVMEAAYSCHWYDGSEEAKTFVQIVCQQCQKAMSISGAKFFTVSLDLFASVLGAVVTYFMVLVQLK
Assay: single-sensillum recording, Drosophila at1 OSNs, dose-response
Type: cell-based
Conditions: agonist; vapour stimulus, 10 ng to 10 µg loaded on filter paper in hexane

**Q.** With `CCCC/C=C\CCCCCCCCOC(C)=O` [(Z)-9-14:OAc, (Z)-9-tetradecenyl acetate] as the compound, how does the “single-sensillum recording, Drosophila at1 OSNs, dose-response” value read?
**A.** The value was “C-SfruOR13 was significantly activated by the same three compounds that elicited a response in R-SfruOR13”.

— article PMC11943435, “Functional Investigation of the Receptor to the Major Pheromone Component in the C-Strain and the R-Strain of the Fall Armyworm Spodoptera frugiperda” (Insects, 2025)
